Assay results reported in the NIST ThermoML archive (doi:10.1021/je400056z).

Test: xn = mol fraction of the nth substance listed
Details: Liquid, Vibrating tube method

CCCCCCC [heptane] + O=C=O
Details | mass density [kg/m3]
332.8 K, 25003 kPa, x2 = 0.0218 | 677.55
332.83 K, 6993 kPa, x2 = 0.5085 | 682.63
332.83 K, 8019 kPa, x2 = 0.5085 | 685.45
332.83 K, 9012 kPa, x2 = 0.5085 | 688
332.83 K, 10004 kPa, x2 = 0.5085 | 690.4
332.83 K, 11006 kPa, x2 = 0.5085 | 692.81
332.83 K, 12005 kPa, x2 = 0.5085 | 695.15
332.83 K, 13003 kPa, x2 = 0.5085 | 697.36
332.83 K, 13999 kPa, x2 = 0.5085 | 699.53
332.83 K, 15005 kPa, x2 = 0.5085 | 701.72
332.83 K, 16003 kPa, x2 = 0.5085 | 703.82
332.83 K, 17000 kPa, x2 = 0.5085 | 706.1
332.83 K, 18006 kPa, x2 = 0.5085 | 708.26
332.83 K, 19000 kPa, x2 = 0.5085 | 710.51
332.83 K, 20000 kPa, x2 = 0.5085 | 712.6
332.83 K, 20991 kPa, x2 = 0.5085 | 714.75
332.83 K, 22000 kPa, x2 = 0.5085 | 716.83
332.83 K, 23003 kPa, x2 = 0.5085 | 718.86
332.83 K, 24000 kPa, x2 = 0.5085 | 720.81
332.83 K, 25002 kPa, x2 = 0.5085 | 722.78
342.59 K, 5015 kPa, x2 = 0.3148 | 660.43
342.59 K, 6006 kPa, x2 = 0.3148 | 662.35
342.59 K, 7008 kPa, x2 = 0.3148 | 664.12
342.59 K, 8003 kPa, x2 = 0.3148 | 665.96
342.59 K, 9023 kPa, x2 = 0.3148 | 667.75
342.59 K, 10000 kPa, x2 = 0.3148 | 669.58
342.59 K, 11004 kPa, x2 = 0.3148 | 671.39
342.59 K, 11999 kPa, x2 = 0.7514 | 668.27
342.59 K, 12012 kPa, x2 = 0.3148 | 673.16
342.59 K, 13009 kPa, x2 = 0.3148 | 674.92
342.59 K, 13078 kPa, x2 = 0.7514 | 677.39
342.59 K, 14002 kPa, x2 = 0.7514 | 684.02
342.59 K, 14006 kPa, x2 = 0.3148 | 676.58
342.59 K, 14980 kPa, x2 = 0.7514 | 690.44
342.59 K, 15007 kPa, x2 = 0.3148 | 678.19
342.59 K, 16000 kPa, x2 = 0.3148 | 679.78
342.59 K, 16000 kPa, x2 = 0.7514 | 696.41
342.59 K, 17006 kPa, x2 = 0.7514 | 701.98
342.59 K, 17008 kPa, x2 = 0.3148 | 681.37
342.59 K, 18003 kPa, x2 = 0.7514 | 707.17
342.59 K, 18004 kPa, x2 = 0.3148 | 682.88
342.59 K, 18988 kPa, x2 = 0.7514 | 711.38
342.59 K, 19000 kPa, x2 = 0.3148 | 684.38
342.59 K, 20000 kPa, x2 = 0.3148 | 685.86
342.59 K, 20006 kPa, x2 = 0.7514 | 716.85
342.59 K, 21010 kPa, x2 = 0.7514 | 721.31
342.59 K, 21018 kPa, x2 = 0.3148 | 687.3
342.59 K, 22004 kPa, x2 = 0.7514 | 725.37
342.59 K, 22006 kPa, x2 = 0.3148 | 688.68
342.59 K, 23009 kPa, x2 = 0.7514 | 729.36
342.59 K, 23014 kPa, x2 = 0.3148 | 690.13
342.59 K, 24006 kPa, x2 = 0.7514 | 733.15
342.59 K, 24010 kPa, x2 = 0.3148 | 691.48
342.59 K, 24951 kPa, x2 = 0.7514 | 736.71
342.59 K, 25016 kPa, x2 = 0.3148 | 692.87
342.68 K, 4004 kPa, x2 = 0.0218 | 646.95
342.68 K, 5003 kPa, x2 = 0.0218 | 648.26
342.68 K, 6004 kPa, x2 = 0.0218 | 649.55
342.68 K, 7009 kPa, x2 = 0.0218 | 650.86
342.68 K, 7996 kPa, x2 = 0.0218 | 652.09
342.68 K, 9017 kPa, x2 = 0.0218 | 653.32
342.68 K, 9997 kPa, x2 = 0.0218 | 654.54
342.68 K, 11003 kPa, x2 = 0.0218 | 655.71
342.68 K, 11998 kPa, x2 = 0.0218 | 656.85
342.68 K, 13010 kPa, x2 = 0.0218 | 657.99
342.68 K, 14002 kPa, x2 = 0.0218 | 659.11
342.68 K, 15008 kPa, x2 = 0.0218 | 660.22
